Measurements published in article PMC10780633, “Novel Multi-Target Agents Based on the Privileged Structure of 4-Hydroxy-2-quinolinone” (Molecules, 2023).
Where “and” joins values, the source holds several entries; their conditions need not be identical. Equal values may be shown once.

Experiments:
[1] = Interaction with the stable free radical DPPH (reducing activity); conditions: 100 μM
Procedure: (§1) In this work, the carboxamides 3a–3u, the quinolinone–cinnamic or benzoic acid hybrids 11a–11g and the reverse amides 16a–16c were tested for their antioxidant activity via five in vitro techniques; (i) the interaction with the stable free radical 2,2-diphenyl-1-picrylhydrazyl (DPPH); (ii) the inhibition of lipid peroxidation; (iii) the hydroxyl radical scavenging ability; (iv) the 2,2-azino-bis(3-ethylbenzothiazoline-6-sulfonic acid (ABTS) radical cation (ABTS·^+) reduction; and (v) the superoxide anion radical scavenging ability.

[2] = Inhibition of lipid peroxidation of linoleic acid induced by AAPH radical; conditions: 100 μM
Procedure: as §1
The assay for the determination of the inhibition of linoleic acid peroxidation induced by the free radical initiator […](2-amidinopropane) dihydrochloride (AAPH) was performed according to the methods of Hadjipavlou-Litina et al., which we have also used in our previous works.

[3] = ABTS radical cation decolorization assay; conditions: 0.1 mM
Procedure: as §1
The experimental technique used in this section was performed according to the methods of Pontiki et al.. The results were compared to the appropriate standard inhibitor Trolox.

[4] = Non-enzymatic superoxide anion radical scavenging assay (PMS); conditions: 0.1 mM
Procedure: as §1
The experimental technique used for this assay was performed according to our previous works. Caffeic acid was used as an appropriate standard.

soybean lipoxygenase = target: T1, soybean lipoxygenase (Glycine max, UniProt P08170); assay: Soybean LOX inhibition in vitro (UV absorbance-based assay); type: biochemical; conditions: for Inhibition of Soybean Lipoxygenase % at 0.1 mM / inhibition at 100 µM: 0.1 mM
T1 construct: purchased Sigma Chemical, Co. (St. Louis, MO, USA)
T1 sequence (P08170 1-839): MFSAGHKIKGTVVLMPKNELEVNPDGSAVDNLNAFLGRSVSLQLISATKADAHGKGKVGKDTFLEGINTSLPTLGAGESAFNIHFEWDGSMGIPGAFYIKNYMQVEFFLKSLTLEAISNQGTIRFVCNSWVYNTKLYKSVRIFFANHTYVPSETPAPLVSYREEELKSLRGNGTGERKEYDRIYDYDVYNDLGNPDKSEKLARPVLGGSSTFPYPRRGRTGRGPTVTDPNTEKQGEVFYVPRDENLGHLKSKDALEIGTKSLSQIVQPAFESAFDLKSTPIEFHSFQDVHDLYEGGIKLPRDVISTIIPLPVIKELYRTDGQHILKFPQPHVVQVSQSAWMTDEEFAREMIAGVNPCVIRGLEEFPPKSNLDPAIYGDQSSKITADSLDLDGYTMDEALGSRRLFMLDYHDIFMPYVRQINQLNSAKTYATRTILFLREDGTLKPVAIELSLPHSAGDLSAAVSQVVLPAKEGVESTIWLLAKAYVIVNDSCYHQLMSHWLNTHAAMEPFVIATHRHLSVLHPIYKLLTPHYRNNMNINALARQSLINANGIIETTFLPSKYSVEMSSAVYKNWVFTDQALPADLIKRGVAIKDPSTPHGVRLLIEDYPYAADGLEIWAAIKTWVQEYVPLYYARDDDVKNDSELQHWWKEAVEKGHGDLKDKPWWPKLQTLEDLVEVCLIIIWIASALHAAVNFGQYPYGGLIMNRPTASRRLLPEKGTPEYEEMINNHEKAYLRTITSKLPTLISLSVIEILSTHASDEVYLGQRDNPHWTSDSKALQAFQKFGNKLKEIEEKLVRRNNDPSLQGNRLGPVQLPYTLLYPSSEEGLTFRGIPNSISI
Procedure: For this study, the UV absorbance-based soybean LOX assay was used.
The assay for the determination of the inhibition of soybean LOX was performed according to the methods of Hadjipavlou-Litina et al., which we have also used in our previous works.

[5] = Competition with DMSO for hydroxyl radicals; conditions: 0.1 mM
Procedure: as §1
The assay was performed according to the methods of Pontiki et al. Trolox was used as a reference compound [78].

Molecule | Interaction with the Free Radical DPPH (%) ([1]; 20 min) | Interaction with the Free Radical DPPH (%) ([1]; 60 min) | Inhibition of Lipid Peroxidation of Linoleic Acid Induced by AAPH Radical (%) [2] [%] | ABTS% (ABTS radical cation decolorization) [3] | PMS% (superoxide anion radical scavenging) [4] | Inhibition of Soybean Lipoxygenase % at 0.1 mM (soybean lipoxygenase) | OH% (hydroxyl radical scavenging) [5] [%] | inhibition at 100 µM (soybean lipoxygenase) [%] | IC50 (soybean lipoxygenase)
4-hydroxy-N-(2-hydroxy-1-phenylethyl)-1-methyl-2-oxo-1,2-dihydroquinoline-3-carboxamide [Compound 3p] | 19.5% | 6.6% | 100 | no | no | no |  |  | 
4-hydroxy-N-(2-hydroxy-1-phenylethyl)-2-oxo-1-phenyl-1,2-dihydroquinoline-3-carboxamide [Compound 3q] | 23.8% | 10.0% | 100 | no | no | 24.0% |  |  | 
O=C(O)/C=C/c1ccc(O)c(O)c1 [Caffeic acid, reference compound] |  |  |  |  | 23% |  |  |  | 
CCCNC(=O)c1c(O)c2ccccc2n(-c2ccccc2)c1=O [Compound 3b, 4-hydroxy-2-oxo-1-phenyl-N-propyl-1,2-dihydroquinoline-3-carboxamide] | 2.7% | 11.8% | 100 | 35.5% | 84.6% |  | 40.8 | 45 | 
Cn1c(=O)c(C(=O)NCCO)c(O)c2ccccc21 [Compound 3c, 4-hydroxy-N-(2-hydroxyethyl)-1-methyl-2-oxo-1,2-dihydroquinoline-3-carboxamide] | 3.3% | 10.7% | 100 | 25.6% | 76.9% |  | 39.8 |  | 52 µM
Cn1c(=O)c(C(=O)Nc2ccc(O)cc2)c(O)c2ccccc21 [Compound 3f, 4-hydroxy-N-(4-hydroxyphenyl)-1-methyl-2-oxo-1,2-dihydroquinoline-3-carboxamide] | 39.3% | 48.6% | 100 | 77.3% |  |  | 67.7 |  | 49 µM
O=C(Nc1ccncc1)c1c(O)c2ccccc2n(-c2ccccc2)c1=O [Compound 3u, 4-hydroxy-2-oxo-1-phenyl-N-(pyridin-4-yl)-1,2-dihydroquinoline-3-carboxamide] | 19.3% | 8.3% | 16.4 | no | no | inactive and no |  |  | 
CCn1c(=O)c(C(=O)NCCNC(=O)c2ccc(OC(C)=O)cc2)c(O)c2ccccc21 [Compound 11a, 4-((2-(1-ethyl-4-hydroxy-2-oxo-1,2-dihydroquinoline-3-carboxamido)ethyl)carbamoyl)phenyl acetate] | 1.0% | 4.4% | 89.0 |  |  |  |  |  | 61 µM
CCn1c(=O)c(C(=O)NCCNC(=O)c2cc(OC)c(OC(C)=O)c(OC)c2)c(O)c2ccccc21 [Compound 11b, 4-((2-(1-ethyl-4-hydroxy-2-oxo-1,2-dihydroquinoline-3-carboxamido)ethyl)carbamoyl)-2,6-dimethoxyphenyl acetate] | 3.0% | no | 93.8 |  |  |  |  |  | 70 µM
CCn1c(=O)c(C(=O)NCCNC(=O)c2ccccc2)c(O)c2ccccc21 [Compound 11c, N-(2-benzamidoethyl)-1-ethyl-4-hydroxy-2-oxo-1,2-dihydroquinoline-3-carboxamide] | 2.0% | 2.0% | 91.0 |  |  |  |  |  | 57.5 µM
CCn1c(=O)c(C(=O)NCCNC(=O)/C=C/c2ccc(OC(C)=O)cc2)c(O)c2ccccc21 [Compound 11d, (E)-4-(3-((2-(1-ethyl-4-hydroxy-2-oxo-1,2-dihydroquinoline-3-carboxamido)ethyl)amino)-3-oxoprop-1-en-1-yl)phenyl acetate] | 3.0% | 2.0% | 94.0 |  |  |  |  | 5 | 
CCn1c(=O)c(C(=O)NCCNC(=O)/C=C/c2ccc(OC(C)=O)c(OC)c2)c(O)c2ccccc21 [Compound 11e, (E)-4-(3-((2-(1-ethyl-4-hydroxy-2-oxo-1,2-dihydroquinoline-3-carboxamido)ethyl)amino)-3-oxoprop-1-en-1-yl)-2-methoxyphenyl acetate] | 3.0% | 5.0% | 97.0 |  |  |  |  |  | 52 µM and 52.5 µM
CCn1c(=O)c(C(=O)NCCNC(=O)/C=C/c2ccc(OC)cc2)c(O)c2ccccc21 [Compound 11f, (E)-1-ethyl-4-hydroxy-N-(2-(3-(4-methoxyphenyl)acrylamido)ethyl)-2-oxo-1,2-dihydroquinoline-3-carboxamide] | 2.0% | 4.0% | 93.0 |  |  |  |  |  | 70 µM
CCn1c(=O)c(C(=O)NCCNC(=O)/C=C/c2ccccc2)c(O)c2ccccc21 [Compound 11g, (E)-N-(2-cinnamamidoethyl)-1-ethyl-4-hydroxy-2-oxo-1,2-dihydroquinoline-3-carboxamide] | no | 2.0% | 97.0 |  |  |  |  |  | 85.5 µM
CCCC(=O)Nc1c(O)c2ccccc2n(C)c1=O [Compound 16a, N-(4-hydroxy-1-methyl-2-oxo-1,2-dihydroquinolin-3-yl)butyramide] | 24.0% | 31.0% | 83.0 |  |  |  |  |  | 81 µM
Cc1ccc(C(=O)Nc2c(O)c3ccccc3n(C)c2=O)cc1 [Compound 16b, N-(4-hydroxy-1-methyl-2-oxo-1,2-dihydroquinolin-3-yl)-4-methylbenzamide] | 27.0% | 32.0% | 88.0 |  |  |  |  |  | 100 µM
Cn1c(=O)c(NC(=O)c2ccccc2O)c(O)c2ccccc21 [Compound 16c, 2-hydroxy-N-(4-hydroxy-1-methyl-2-oxo-1,2-dihydroquinolin-3-yl)benzamide] | 25.0% | 28.0% | 88.0 |  |  |  |  |  | 82.5 µM
C[C@H](Cc1ccc(O)c(O)c1)[C@@H](C)Cc1ccc(O)c(O)c1 [NDGA, nordihydroguaiaretic acid, reference compound] | 83.0% | 94.0% |  |  |  |  |  |  | 
Cc1c(C)c2c(c(C)c1O)CCC(C)(C(=O)O)O2 (stereo not drawn) [Trolox, reference compound] |  |  | 88.0 | 93.0% |  |  | 82.0 |  | 
